The values below come from patent publication US20120189566A1 (DAIICHI FINE CHEMICAL CO., LTD., priority 2009, published 2012).

Data set [1] can be described thus: pH stability of pantethine-4′,4″-diphosphate, pantethine-4′-phosphate and pantethine (Example 2). The data set is classed as physicochemical. The conditions noted are these: pH 4 or lower, or pH 7 or higher; 0.1% (w/v) in 50 mM buffer, 40° C. for 3 months; diphosphate tested as sodium salt.
Data set [2] is described as follows: pH stability of barium pantethine-4′,4″-diphosphate, pantethine and calcium pantetheine-5-sulfonate (Example 1). Conditions: 0.1% (w/v) in 50 mM buffer, 40° C. for 6 months, diphosphate tested as barium salt.
Description: Sodium citrate buffer solutions were used as buffer solutions at pH 3, 4, 5 and 6. Sodium phosphate buffer solutions were used as buffer solutions at pH 6.5 and 7. Tris-HCl buffer solutions were used as buffer solutions at pH 8 and 9.5.
Data set [3] relates to LabCyte MELANO-MODEL, human skin three-dimensional model containing melanocytes. As to the kind of experiment: Melanin production inhibition test in human skin three-dimensional model. Format: cell-based. The conditions noted are these: for IC50: read-out: concentration at which melanin production inhibition rate reaches 50%, from plots in FIG. 5, kojic acid 0.1% = 100% inhibition, PBS = 0%. Here is the method: The culture medium and the applied sample solution were exchanged every 2 or 3 days. After the completion of the culture, the percentage of viable cells was measured by an MTT (methylthiazole tetrazolium) assay. Further, a melanin amount was measured.
Melanin amount: The skin cells after the MTT assay were immersed in a reagent obtained by dissolving 1% SDS, 0.05 mM EDTA, and a 10 mM tris-HCl buffer solution (pH 7.2). 3 μL of a 5 mg/mL Proteinase K was added and the solution was heated in a water bath at 45° C. overnight to dissolve the skin. A 30% hydrogen peroxide solution and a 500 mM sodium carbonate solution were added thereto, the solution was mixed well and heated in a water bath at 80° C. for 30 min, and impurities were removed by chloroform/methanol (2/1). At the same time, melanin solutions were prepared by similar operations to prepare a calibration curve, and a melanin amount in the cultured skin cells was determined.

A short description of data set [4]: Stability of pantetheine-4′-phosphate, pantetheine and pantethine (Example 4). Conditions: 40° C. for 1 month; for amount of disulfide produced from the compound: alkaline condition (pH 8 and pH 9.5).
Protocol: Fifty mM sodium citrate buffer solutions (pH 3, 4, 5, and 6), a 50 mM sodium phosphate buffer solution (pH 7), and 50 mM tris-HCl buffer solutions (pH 8, 9.5) containing 0.1% (w/v) of pantetheine-4′-phosphate were prepared. Each 0.4 mL of the solutions was encapsulated in a 1 mL-glass ampule and heated at 40° C. for 1 month. Samples before and after the heating were analyzed by an HPLC to measure the content of pantetheine-4′-phosphate.
Where [5] appears, read: ratio of 50% inhibition concentrations.

As to `CC(C)(COP(=O)(O)O)[C@@H](O)C(=O)NCCC(=O)NCCSSCCNC(=O)CCNC(=O)[C@H](O)C(C)(C)COP(=O)(O)O` [Pantethine-4′,4″-diphosphate, pantethine-4′,4″-diphosphate], in data set [1], the “stability (content by HPLC before and after heating)” value was “stable”.
Regarding `CC(C)(CO)[C@@H](O)C(=O)NCCC(=O)NCCSS(=O)(=O)[O-].CC(C)(CO)[C@@H](O)C(=O)NCCC(=O)NCCSS(=O)(=O)[O-].[Ca+2]` [calcium pantetheine-5-sulfonate], the “stability (content by HPLC before and after heating)” value is listed as “stable” in data set [2] (between pH 5 and 6); “clearly degraded” in data set [2] (pH 4 or lower, or pH 6.5 or higher).
As to `O=c1cc(CO)occ1O` [kojic acid], the “melanin production amount, relative to the case where only PBS was added” value in data set [3] (0.1% (7 mM), culture for 2 weeks) is listed as 30%.
Consider `CC(C)(COP(=O)(O)O)[C@@H](O)C(=O)NCCC(=O)NCCS` [pantetheine-4′-phosphate], for which the “amount of disulfide produced from the compound” value in data set [4] is reported as “did not decrease”. Moreover, the “stability (content by HPLC before and after heating)” value in data set [4] (pH 3 and 4, 0.1% (w/v) in 50 mM buffer) is on record as “improved from pantetheine”. Further, the “stability: oxidation to the disulfide” value in data set [4] (pH 5 or higher, 0.1% (w/v) in 50 mM buffer) was “oxidized and changed to pantethine-4′,4″-diphosphate”. For the same molecule, in data set [4] (pH 7 or higher, 0.1% (w/v) in 50 mM buffer), the “stability: remaining compound” value is “neither the pantetheine-4′-phosphate nor pantetheine remained”.
Regarding `CC(C)(CO)[C@@H](O)C(=O)NCCC(=O)NCCS` [pantetheine], the “amount of disulfide produced from the compound” value in data set [4] was “decrease in the amount of pantethine produced”.
Regarding `O=C1O[C@H]([C@@H](O)CO)C(O)=C1OP(=O)(O)O` [sodium ascorbyl-2-phosphate], the IC50 in data set [3] (culture for 2 weeks) amounted to 54 mM.
Regarding pantethine-4′,4″-di-β-galactoside, in data set [3] (culture for 2 weeks), the IC50 was determined as 77 mM.
On to sodium pantethine-4′,4″-diphosphate, for which, in data set [3] (setting [5]), the “whitening activity relative to pantethine” value is on record as 1.7 fold and the “whitening activity relative to sodium ascorbyl-2-phosphate” value is 17 times. The IC50 in data set [3] (culture for 2 weeks) amounted to 3.1 mM.
